Experimental data published in PubChem BioAssay (NCI).
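Cells were grown in 96-well plates and exposed to each compound for 48 hours at five concentrations; endpoints were interpolated linearly between bracketing concentrations, or set to the highest concentration if not reached. At the GI50, growth is halved. TGI marks complete inhibition of growth.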

Key:
Experiment in all cases: NCI tumour cell line growth inhibition, 48 h
A498 renal = tested on: A498 renal
HT29 colon = tested on: HT29 colon
NCI-H23 lung = tested on: NCI-H23 lung
NCI-H460 lung = tested on: NCI-H460 lung
OVCAR-8 ovarian = tested on: OVCAR-8 ovarian
SK-MEL-2 melanoma = tested on: SK-MEL-2 melanoma
SK-MEL-28 melanoma = tested on: SK-MEL-28 melanoma
SN12C renal = tested on: SN12C renal
SR leukemia = tested on: SR leukemia
BT-549 breast = tested on: BT-549 breast

| Compound | TGI (A498 renal) [µM] | TGI (HT29 colon) [µM] | TGI (NCI-H23 lung) [µM] | TGI (NCI-H460 lung) [µM] | TGI (OVCAR-8 ovarian) [µM] | TGI (SK-MEL-2 melanoma) [µM] | TGI (SK-MEL-28 melanoma) [µM] | TGI (SN12C renal) [µM] | TGI (SR leukemia) [µM] | TGI (BT-549 breast) [µM] | GI50 (A498 renal) [µM] | GI50 (BT-549 breast) [µM] | GI50 (NCI-H23 lung) [µM] | GI50 (OVCAR-8 ovarian) [µM] | GI50 (SK-MEL-2 melanoma) [µM] | GI50 (SK-MEL-28 melanoma) [µM] | GI50 (SR leukemia) [µM] | GI50 (HT29 colon) [µM] | GI50 (NCI-H460 lung) [µM] |
| --- | --- | --- | --- | --- | --- | --- | --- | --- | --- | --- | --- | --- | --- | --- | --- | --- | --- | --- | --- |
| O=C1CCc2ccccc2O1 | > 100 | > 100 | > 100 | > 100 | > 100 | > 100 | > 100 | > 100 | > 100 | – | – | – | – | – | – | – | – | – | – |
| COc1ccc(C2NC3=C(CCCC3)N2)cc1 | > 100 | > 100 | > 100 | > 100 | > 100 | > 100 | > 100 | > 100 | > 100 | – | – | – | – | – | – | – | – | – | – |
| CC1=C(C(=O)NCCCN(CCO)CCO)CC(C(=O)NCCCN(CCO)CCO)=C(C)N1 | > 100 | > 100 | > 100 | > 100 | > 100 | > 100 | – | > 100 | – | > 100 | – | – | – | – | – | – | – | – | – |
| CCOC(=O)C(NC(=O)c1ccccc1)(Nc1ccc(S(=O)(=O)Nc2ccc(OC)nn2)cc1)C(F)(F)F (configuration not stated) | – | > 100 | > 100 | > 100 | > 100 | > 100 | > 100 | > 100 | > 100 | > 100 | – | – | – | – | – | – | – | – | – |
| CC1(C)OC2[C@@H](CO[C@@]3([C@H]4OC(C)(C)O[C@@H]4CO)OC(C)(C)O[C@@H]23)O1 (some centres not stated) | – | > 100 | > 100 | > 100 | > 100 | > 100 | > 100 | > 100 | > 100 | > 100 | – | – | – | – | – | – | – | – | – |
| CCOC(=O)c1cc([N+](=O)[O-])cc([N+](=O)[O-])c1Sc1ncnc2nc[nH]c12 | 25.3 | 15.3 | – | 33.9 | 4.48 | 9.43 | 11.2 | 5.34 | > 100 | 8.59 | – | – | – | – | – | – | – | – | – |
| Nc1ccn(CCCC(c2ccccc2)P(=O)(O)O)c(=O)n1 (configuration not stated) | > 100 | > 100 | > 100 | > 100 | > 100 | > 100 | > 100 | > 100 | > 100 | – | – | – | – | – | – | – | – | – | – |
| COC(=O)CC1NC(=O)C1C(C)(OC)OC (configuration not stated) | > 100 | > 100 | > 100 | > 100 | > 100 | > 100 | > 100 | > 100 | > 100 | – | – | – | – | – | – | – | – | – | – |
| N#CCN1CCCN(CC#N)CCN(CC#N)CCCN(CC#N)CC1 | > 100 | – | > 100 | > 100 | > 100 | > 100 | > 100 | > 100 | > 100 | > 100 | – | – | – | – | – | – | – | – | – |
| CCOC(=O)C1=C(O)c2ccc(OC)cc2C(=O)C1=O | > 100 | > 100 | > 100 | > 100 | > 100 | > 100 | > 100 | > 100 | > 100 | – | – | – | – | – | – | – | – | – | – |
| N/C(=N/N=C/c1cccc(F)c1)NO | > 100 | > 100 | > 100 | > 100 | > 100 | > 100 | > 100 | > 100 | > 100 | – | – | – | – | – | – | – | – | – | – |
| COc1cc(CC(=O)c2cc3c(cc2-c2ccccc2)OCO3)cc(OC)c1OC | > 100 | > 100 | > 100 | > 100 | > 100 | > 100 | > 100 | > 100 | 72.3 | – | – | – | – | – | – | – | – | – | – |
| c1ccc(Sc2nc(Sc3ccccc3)nc(Sc3ccccc3)n2)cc1 | 86.8 | > 100 | > 100 | > 100 | – | > 100 | > 100 | > 100 | > 100 | > 100 | – | – | – | – | – | – | – | – | – |
| O=C1C(=O)N(C23CC4CC(CC(C4)C2)C3)C(=S)N1c1ccccc1 | > 100 | > 100 | > 100 | > 100 | > 100 | > 100 | > 100 | > 100 | > 100 | – | – | – | – | – | – | – | – | – | – |
| CNC(=O)c1cc(Oc2cccc3nc(NC(=O)Nc4ccc(F)cc4F)ccc23)ccn1 | 23.3 | – | > 50 | – | > 50 | > 50 | > 50 | – | > 50 | > 50 | 0.418 | > 50 | 2.4 | 1.65 | > 50 | 1.42 | 0.41 | – | – |
| O=c1cc(NNc2cccc(F)c2)[nH]c(=S)[nH]1 | > 100 | > 100 | – | > 100 | > 100 | – | > 100 | > 100 | > 100 | > 100 | – | – | – | – | – | – | – | – | – |
| O=C(NCCC1CN(S(=O)(=O)C(F)(F)F)c2ccccc21)OCc1ccccc1 (configuration not stated) | > 100 | > 100 | > 100 | > 100 | > 100 | > 100 | > 100 | – | > 100 | > 100 | – | – | – | – | – | – | – | – | – |
| CCOC(=O)CCC(C(=O)OCC)n1nnc2ccc(Nc3c(C)[n+]([O-])c4cc(F)c(OCC)cc4[n+]3[O-])cc21 (configuration not stated) | > 100 | > 100 | > 100 | > 100 | > 100 | > 100 | – | > 100 | > 100 | > 100 | – | – | – | – | – | – | – | – | – |
| COc1c(C)c(C/C=C(\C)CCCCO)c(OC)c2ccccc12 | – | 43.7 | 94.2 | 37.8 | > 100 | > 100 | – | 52.9 | 55.6 | > 100 | – | – | – | – | – | – | – | – | – |
| COC1=CC(c2ccc[nH]2)=N/C1=C\c1[nH]c(C)c(C)c1CCC(=O)OCc1ccccc1 | 1.99 | 1.36 | 2.55 | 10.8 | 1.44 | 2.1 | – | – | 0.618 | 2.9 | 0.563 | 0.378 | 0.382 | 0.366 | 0.572 | – | 0.175 | 0.191 | 0.623 |
| N#CC(C#N)C1CN2CCC1CC2 (configuration not stated) | > 100 | > 100 | > 100 | > 100 | > 100 | > 100 | > 100 | > 100 | > 100 | – | – | – | – | – | – | – | – | – | – |
| Clc1ccc(Nc2nnc(CNc3ccc(-c4nnc(Nc5ccc(Cl)cc5)o4)cc3)o2)cc1 | 28.9 | 33.1 | 36 | 41.6 | 25.7 | 45.8 | 34.7 | 36.9 | – | 38.6 | – | – | – | – | – | – | – | – | – |
